Counter-ions that a name gives are not always drawn.
Test system: activated T cells (CD4+ T cells from mouse spleen)
Test: 3H-thymidine uptake in activated T cells
Format: cell-based, mouse (C57BL/6J)
Settings: T-cell; mouse spleen CD4+ T cells activated with Dynabeads Mouse T-Activator CD3/CD28; read-out: IC50 (3H-thymidine uptake, proliferation of activated T cells)
Method: Effect of Test Substance on ^3H-Thymidine Uptake in Activated T Cells
The effect of test substance on ^3H-thymidine uptake by activation was evaluated using T cells from mouse spleen. The spleen was removed from euthanized C57BL/6J mice, and finely sliced, then triturated on a cell strainer (40 μm mesh), and cells were collected by centrifugation. The collected splenocytes were treated with Cold lyser containing 0.17 M NH4Cl for 5 minutes to hemolytically remove red blood cells and then washed. The resulting cells were used as the splenocytes. From the splenocytes, CD4+ T cells were isolated using an EasySep Mouse CD4+ T cell isolation kit (STEMCELL Technologies Inc.). The CD4+ T cells were seeded into 96-well round-bottom plates. To the plates, test substance or Vehicle was added, and Dynabeads Mouse T-Activator CD3/CD28 (Thermo Fisher Scientific Inc.) was added, then the cells were cultured at 37° C. under 5% CO2. After 24 hours of culture, ^3H-Thymidine (PerkinElmer Inc.) diluted with medium was added to each well, then the cells were further cultured at 37° C. under 5% CO2 overnight. To measure ^3H-Thymidine uptake into the nuclei of the cells, the cells were collected into filter plates UniFilter-96 GF/B (PerkinElmer Inc.) using a FilterMate Universal Harvester (PerkinElmer Inc.). The filter plates were placed in a dryer and left still for 2 hours or more. Then, scintillation cocktail MicroScint-O (PerkinElmer Inc.) was added to the plates, and radioactivity was measured with TopCount NXT (PerkinElmer Inc.). With the radioactivity of the test substance-free group set as 100% and the radioactivity of the non-activation group as 0%, the relative value (proliferation rate, % of vehicle) of the radioactivity of each well to which test substance was added was calculated. The value of % of vehicle was incorporated into analysis software Prism (Version 5.0, GraphPad Software), the “Nonlinear Regression Log (inhibitor) vs Reaction Variable Inclination” was selected, and then sigmoid fitting with restrictions of Bottom=0 and Top=100 was performed to calculate 50% inhibitory concentration (IC50).

Row | Compound | IC50
1 | N[C@@H](Cc1cccc(S(=O)(=O)N2CC(Oc3cccc(F)c3)(c3ccc(F)cc3)C2)c1)C(=O)O [Example 1, (S)-2-Amino-3-(3-((3-(3-fluorophenoxy)-3-(4-fluorophenyl)azetidin-1-yl)sulfonyl)phenyl)propanoic acid] | 1.2 nM
2 | N[C@@H](Cc1cccc(S(=O)(=O)N2CC(Oc3ccccc3C(F)(F)F)(c3ccccc3)C2)c1)C(=O)O [Example 2] | 15 nM
3 | N[C@@H](Cc1cccc(S(=O)(=O)N2CC(Oc3cccc(Cl)c3)(c3ccccc3)C2)c1)C(=O)O [Example 3, (S)-2-Amino-3-(3-((3-(3-chlorophenoxy)-3-phenylazetidin-1-yl)sulfonyl)phenyl)propanoic acid] | 3.1 nM
4 | N[C@@H](Cc1cccc(S(=O)(=O)N2CC(Oc3ccccc3F)(c3ccc(F)cc3)C2)c1)C(=O)O [Example 4, (S)-2-Amino-3-(3-((3-(2-fluorophenoxy)-3-(4-fluorophenyl)azetidin-1-yl)sulfonyl)phenyl)propanoic acid] | 2.6 nM
5 | N[C@@H](Cc1cccc(S(=O)(=O)N2CC(Oc3ccccc3Br)(c3ccccc3)C2)c1)C(=O)O [Example 5, (S)-2-Amino-3-(3-((3-(2-bromophenoxy)-3-phenylazetidin-1-yl)sulfonyl)phenyl)propanoic acid] | 3.2 nM
6 | N[C@@H](Cc1cccc(S(=O)(=O)N2CC(Oc3ccc(F)cc3)(c3ccc(F)cc3)C2)c1)C(=O)O [Example 6, (S)-2-Amino-3-(3-((3-(4-fluorophenoxy)-3-(4-fluorophenyl)azetidin-1-yl)sulfonyl)phenyl)propanoic acid] | 1.2 nM
7 | N[C@@H](Cc1cccc(S(=O)(=O)N2CC(Oc3ccccc3Cl)(c3ccccc3)C2)c1)C(=O)O [Example 7, (S)-2-Amino-3-(3-((3-(2-chlorophenoxy)-3-phenylazetidin-1-yl)sulfonyl)phenyl)propanoic acid] | 4.1 nM
8 | N[C@@H](Cc1cccc(S(=O)(=O)N2CC(Oc3cccc(Br)c3)(c3ccccc3)C2)c1)C(=O)O [Example 8, (S)-2-Amino-3-(3-((3-(3-bromophenoxy)-3-phenylazetidin-1-yl)sulfonyl)phenyl)propanoic acid] | 3 nM
9 | Cc1ccc(OC2(c3ccccc3)CN(S(=O)(=O)c3cccc(C[C@H](N)C(=O)O)c3)C2)cc1 [Example 9] | 4.3 nM
10 | N[C@@H](Cc1cccc(S(=O)(=O)N2CC(Oc3ccc(F)c(F)c3)(c3ccccc3)C2)c1)C(=O)O [Example 10, (S)-2-Amino-3-(3-((3-(3,4-difluorophenoxy)-3-phenylazetidin-1-yl)sulfonyl)phenyl)propanoic acid] | 21 nM
11 | N[C@@H](Cc1cccc(S(=O)(=O)N2CC(Oc3ccc(F)c(Cl)c3)(c3ccccc3)C2)c1)C(=O)O [Example 11] | 20 nM
12 | N[C@@H](Cc1cccc(S(=O)(=O)N2CC(Oc3ccc(C(F)(F)F)cc3)(c3ccccc3)C2)c1)C(=O)O [Example 12] | 9.6 nM
13 | N[C@@H](Cc1cccc(S(=O)(=O)N2CC(Oc3cccc(F)c3)(c3ccccc3F)C2)c1)C(=O)O [Example 13] | 3 nM
14 | N[C@@H](Cc1cccc(S(=O)(=O)N2CC(Oc3ccc(F)cc3)(c3ccccc3F)C2)c1)C(=O)O [Example 14] | 30 nM
15 | NC(=O)c1cccc(OC2(c3ccccc3)CN(S(=O)(=O)c3cccc(C[C@H](N)C(=O)O)c3)C2)c1 [Example 15] | 2.9 nM
16 | N[C@@H](Cc1cccc(S(=O)(=O)N2CC(Cc3ccccc3)(c3ccccc3)C2)c1)C(=O)O [Example 16] | 68 nM
17 | NC(=O)c1ccc(OC2(c3ccccc3)CN(S(=O)(=O)c3cccc(C[C@H](N)C(=O)O)c3)C2)cc1 [Example 17, (S)-2-Amino-3-(3-((3-(4-carbamoylphenoxy)-3-phenylazetidin-1-yl)sulfonyl)phenyl)propanoic acid hydrochloride] | 1.2 nM
18 | N#Cc1ccccc1OC1(c2ccccc2)CN(S(=O)(=O)c2cccc(C[C@H](N)C(=O)O)c2)C1 [Example 18, (S)-2-Amino-3-(3-((3-(2-cyanophenoxy)-3-phenylazetidin-1-yl)sulfonyl)phenyl)propanoic acid] | 2.9 nM
19 | N[C@@H](Cc1cccc(S(=O)(=O)N2CC(Oc3ccc(Br)cc3)(c3ccccc3)C2)c1)C(=O)O [Example 19] | 3 nM
20 | N#Cc1cccc(OC2(c3ccccc3)CN(S(=O)(=O)c3cccc(C[C@H](N)C(=O)O)c3)C2)c1 [Example 20] | 3 nM
21 | N[C@@H](Cc1cccc(S(=O)(=O)N2CC(Oc3cccc(C(F)(F)F)c3)(c3ccccc3)C2)c1)C(=O)O [Example 21] | 2.5 nM

Row | Compound | IC50
22 | N[C@@H](Cc1cccc(S(=O)(=O)N2CC(Oc3cccnc3)(c3ccccc3)C2)c1)C(=O)O [Example 22] | 8.7 nM
23 | N[C@@H](Cc1cccc(S(=O)(=O)N2CC(Oc3ccncc3)(c3ccccc3)C2)c1)C(=O)O [Example 23] | 16 nM
24 | N[C@@H](Cc1cccc(S(=O)(=O)N2CC(Oc3ccccc3)(c3ccccc3)C2)c1)C(=O)O [Example 24] | 0.49 nM
25 | CC(C)(C)CC1(Oc2ccccc2)CN(S(=O)(=O)c2cccc(C[C@H](N)C(=O)O)c2)C1 [Example 25] | 92 nM
26 | N[C@@H](Cc1cccc(S(=O)(=O)N2CC(Oc3ccccc3)(c3cccc(F)c3)C2)c1)C(=O)O [Example 26] | 2.5 nM
27 | N[C@@H](Cc1cccc(S(=O)(=O)N2CC(Oc3ccccc3)(c3ccccc3F)C2)c1)C(=O)O [Example 27] | 2.9 nM
28 | [2H]c1c([2H])c([2H])c(C2(Oc3cccc(F)c3)CN(S(=O)(=O)c3cccc(C[C@H](N)C(=O)O)c3)C2)c([2H])c1[2H] [Example 28] | 2.3 nM
29 | N[C@@H](Cc1cccc(S(=O)(=O)N2CC(Oc3ccccc3)(C(F)(F)F)C2)c1)C(=O)O [Example 29] | 180 nM
30 | CC1(Oc2ccccc2)CN(S(=O)(=O)c2cccc(C[C@H](N)C(=O)O)c2)C1 [Example 30] | 1100 nM
31 | N[C@@H](Cc1cccc(S(=O)(=O)N2CC(Oc3ccccc3)(C3CC3)C2)c1)C(=O)O [Example 31] | 210 nM
32 | N[C@@H](Cc1cccc(S(=O)(=O)N2CC(Oc3ccccc3)(c3nccs3)C2)c1)C(=O)O [Example 32] | 11 nM
33 | N[C@@H](Cc1cccc(S(=O)(=O)N2CC(Oc3ccccc3)(c3ccccn3)C2)c1)C(=O)O [Example 33] | 7.8 nM
34 | N[C@@H](Cc1cccc(S(=O)(=O)N2CC(Oc3ccccc3F)(c3ccccn3)C2)c1)C(=O)O [Example 34] | 19 nM
35 | N[C@@H](Cc1cccc(S(=O)(=O)N2CC(Oc3cccc(F)c3)(c3ccccn3)C2)c1)C(=O)O [Example 35] | 17 nM
36 | N[C@@H](Cc1cccc(S(=O)(=O)N2CC(c3ccccc3-c3ccccc3)C2)c1)C(=O)O [Example 36] | 78 nM
37 | Cc1ccccc1-c1ccccc1C1CN(S(=O)(=O)c2cccc(C[C@H](N)C(=O)O)c2)C1 [Example 37] | 85 nM
38 | N[C@@H](Cc1cccc(S(=O)(=O)N2CC(Oc3ccccc3-c3ccccc3Cl)C2)c1)C(=O)O [Example 38] | 34 nM
39 | N[C@@H](Cc1cccc(S(=O)(=O)N2CC(OC3CC3)(c3ccccc3)C2)c1)C(=O)O [Example 39] | 140 nM
40 | N#Cc1ccc(OC2(c3ccccc3)CN(S(=O)(=O)c3cccc(C[C@H](N)C(=O)O)c3)C2)cc1 [Example 40] | 2.2 nM
41 | N[C@@H](Cc1cccc(S(=O)(=O)N2CC(Oc3ccc(F)cc3)(c3ccccn3)C2)c1)C(=O)O [Example 43] | 8.6 nM

— patent publication US20210238136A1, “AZETIDINE DERIVATIVE, AND PRODRUG THEREOF” (DAIICHI SANKYO COMPANY, LIMITED, priority 2018, published 2021)
